From patent US11173160B2 (UNIVERSITY OF PITTSBURGH—OF THE COMMONWEALTH SYSTEM OF …, priority 2019, dated 2021)
Entries after “also recorded” stand apart in the source; their conditions may differ.

Tests used:
[1] = cited from earlier work
[2] = tested on: DIPG-007 and DIPG-IV cells; assay: Annexin-PI flow cytometry apoptosis assay; type: cell-based, human; settings: 48 h, vs DMSO vehicle control
Experimental: FIGS. 5A-5K provide that pharmacological inhibition of ERK5 triggered cell death and apoptosis in DIPG cells. […] (5C-5E).
Apoptosis was quantified using the Pacific Blue Annexin V Apoptosis Detection Kit with propidium iodide (BioLegend, San Diego, Calif. Cat #640926). Analysis was performed at the Flow Cytometry Core, Rangos Research Center, UPMC Children's Hospital of Pittsburgh.

JAK3 = JAK3 (Homo sapiens, UniProt P52333); settings: cited from earlier work
p38α = p38α (Homo sapiens, UniProt Q16539); settings: cited from earlier work
p38α, sequence (Q16539 whole entry): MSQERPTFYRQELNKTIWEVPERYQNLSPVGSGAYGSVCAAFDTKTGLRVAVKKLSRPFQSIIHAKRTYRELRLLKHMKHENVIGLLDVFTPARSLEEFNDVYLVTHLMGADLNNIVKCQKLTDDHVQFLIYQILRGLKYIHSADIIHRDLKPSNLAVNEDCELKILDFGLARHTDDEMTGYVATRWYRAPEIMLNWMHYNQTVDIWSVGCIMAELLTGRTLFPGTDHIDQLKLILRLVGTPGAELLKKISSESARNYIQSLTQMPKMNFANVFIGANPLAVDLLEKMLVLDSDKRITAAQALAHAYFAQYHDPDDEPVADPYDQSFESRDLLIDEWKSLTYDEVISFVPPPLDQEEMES

[3] = target: (Homo sapiens, UniProt O15264); settings: Source Invitrogen; 10-point titration in duplicates, done once; cited from earlier work
(Homo sapiens, UniProt O15264), sequence (O15264 whole entry): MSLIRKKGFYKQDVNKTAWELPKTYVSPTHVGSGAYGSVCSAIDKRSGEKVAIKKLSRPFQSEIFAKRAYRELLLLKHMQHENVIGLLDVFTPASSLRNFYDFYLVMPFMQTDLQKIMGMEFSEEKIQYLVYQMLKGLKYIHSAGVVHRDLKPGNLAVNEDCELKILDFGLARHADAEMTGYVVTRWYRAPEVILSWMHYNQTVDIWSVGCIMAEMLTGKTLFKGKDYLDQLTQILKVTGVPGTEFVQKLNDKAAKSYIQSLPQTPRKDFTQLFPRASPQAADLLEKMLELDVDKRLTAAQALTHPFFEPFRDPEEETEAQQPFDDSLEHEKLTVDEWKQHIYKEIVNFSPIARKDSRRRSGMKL

[4] = human pharmacokinetics of TG02 as a single agent
KDR = KDR (Homo sapiens, UniProt P35968); settings: cited from earlier work
IKK-β = IKK-β (Homo sapiens, UniProt O14920); settings: cited from earlier work
IKK-β, sequence (O14920 whole entry): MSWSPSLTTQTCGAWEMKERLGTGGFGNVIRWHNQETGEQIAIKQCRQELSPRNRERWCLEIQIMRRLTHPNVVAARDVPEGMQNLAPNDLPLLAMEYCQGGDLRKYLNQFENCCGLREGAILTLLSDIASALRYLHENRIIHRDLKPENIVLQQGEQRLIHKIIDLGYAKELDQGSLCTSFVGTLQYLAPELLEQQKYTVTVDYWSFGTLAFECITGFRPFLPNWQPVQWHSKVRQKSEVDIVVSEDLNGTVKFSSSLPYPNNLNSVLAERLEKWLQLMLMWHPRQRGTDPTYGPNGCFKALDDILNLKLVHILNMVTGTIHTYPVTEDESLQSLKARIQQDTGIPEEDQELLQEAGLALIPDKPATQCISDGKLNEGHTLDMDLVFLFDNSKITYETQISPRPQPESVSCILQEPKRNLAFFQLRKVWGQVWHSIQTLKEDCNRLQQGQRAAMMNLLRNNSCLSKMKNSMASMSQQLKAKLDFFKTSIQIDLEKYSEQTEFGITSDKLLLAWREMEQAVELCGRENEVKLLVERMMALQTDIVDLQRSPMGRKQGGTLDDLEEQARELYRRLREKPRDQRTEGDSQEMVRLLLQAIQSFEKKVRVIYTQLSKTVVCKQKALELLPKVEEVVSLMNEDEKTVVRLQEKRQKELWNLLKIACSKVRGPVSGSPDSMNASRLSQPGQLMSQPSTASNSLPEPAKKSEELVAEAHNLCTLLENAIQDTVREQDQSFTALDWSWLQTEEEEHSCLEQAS

Abl = Abl (Homo sapiens, UniProt P00519); settings: cited from earlier work
PDGFRβ = PDGFRβ (Homo sapiens, UniProt P09619); settings: cited from earlier work
PDGFRβ, sequence (P09619 33-1106, species assumed): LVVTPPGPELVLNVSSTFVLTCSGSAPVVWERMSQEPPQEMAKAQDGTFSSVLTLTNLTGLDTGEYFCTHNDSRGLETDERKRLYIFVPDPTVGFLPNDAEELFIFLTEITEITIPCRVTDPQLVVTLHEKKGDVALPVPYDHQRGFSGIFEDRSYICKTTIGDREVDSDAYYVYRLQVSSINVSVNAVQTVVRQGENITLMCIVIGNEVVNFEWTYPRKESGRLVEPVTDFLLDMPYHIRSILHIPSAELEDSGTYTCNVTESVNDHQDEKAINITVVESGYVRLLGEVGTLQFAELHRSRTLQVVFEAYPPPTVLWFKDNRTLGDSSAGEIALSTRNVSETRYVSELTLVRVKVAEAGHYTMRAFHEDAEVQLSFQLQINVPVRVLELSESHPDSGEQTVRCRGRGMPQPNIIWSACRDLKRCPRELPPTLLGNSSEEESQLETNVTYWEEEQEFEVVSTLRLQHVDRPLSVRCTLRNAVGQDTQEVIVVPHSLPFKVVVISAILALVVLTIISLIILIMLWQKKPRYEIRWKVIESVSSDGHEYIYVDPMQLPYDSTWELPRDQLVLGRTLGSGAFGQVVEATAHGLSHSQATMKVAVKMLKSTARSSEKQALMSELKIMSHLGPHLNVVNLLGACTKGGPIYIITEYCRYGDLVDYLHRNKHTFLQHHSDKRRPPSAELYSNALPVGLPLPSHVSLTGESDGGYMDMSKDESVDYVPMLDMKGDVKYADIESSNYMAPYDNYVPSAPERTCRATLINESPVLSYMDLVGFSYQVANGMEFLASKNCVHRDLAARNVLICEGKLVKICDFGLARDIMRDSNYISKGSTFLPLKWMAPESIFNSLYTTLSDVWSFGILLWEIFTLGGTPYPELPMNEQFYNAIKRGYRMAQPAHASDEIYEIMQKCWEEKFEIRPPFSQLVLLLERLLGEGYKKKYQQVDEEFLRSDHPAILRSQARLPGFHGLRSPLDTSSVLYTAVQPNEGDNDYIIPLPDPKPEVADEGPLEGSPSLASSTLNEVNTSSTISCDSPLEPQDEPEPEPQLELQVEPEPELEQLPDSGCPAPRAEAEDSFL

Src = Src (Homo sapiens, UniProt P12931); settings: cited from earlier work
Src, sequence (P12931 whole entry, species assumed): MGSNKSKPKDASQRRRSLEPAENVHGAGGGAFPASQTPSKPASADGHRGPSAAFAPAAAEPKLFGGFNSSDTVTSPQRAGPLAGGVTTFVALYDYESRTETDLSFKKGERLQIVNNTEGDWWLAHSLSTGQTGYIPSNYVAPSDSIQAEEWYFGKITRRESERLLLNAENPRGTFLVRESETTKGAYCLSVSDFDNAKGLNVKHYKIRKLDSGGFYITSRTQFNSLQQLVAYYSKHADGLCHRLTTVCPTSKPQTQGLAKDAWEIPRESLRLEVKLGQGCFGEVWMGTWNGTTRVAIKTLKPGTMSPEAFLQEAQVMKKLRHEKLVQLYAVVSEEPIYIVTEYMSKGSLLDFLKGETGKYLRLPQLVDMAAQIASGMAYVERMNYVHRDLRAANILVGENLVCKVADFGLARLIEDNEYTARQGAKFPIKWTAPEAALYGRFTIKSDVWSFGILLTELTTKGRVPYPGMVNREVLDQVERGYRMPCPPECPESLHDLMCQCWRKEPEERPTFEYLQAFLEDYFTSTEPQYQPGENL

CYP1A2 = CYP1A2 (Homo sapiens, UniProt P05177); settings: cited from earlier work
CYP1A2, sequence (P05177 whole entry): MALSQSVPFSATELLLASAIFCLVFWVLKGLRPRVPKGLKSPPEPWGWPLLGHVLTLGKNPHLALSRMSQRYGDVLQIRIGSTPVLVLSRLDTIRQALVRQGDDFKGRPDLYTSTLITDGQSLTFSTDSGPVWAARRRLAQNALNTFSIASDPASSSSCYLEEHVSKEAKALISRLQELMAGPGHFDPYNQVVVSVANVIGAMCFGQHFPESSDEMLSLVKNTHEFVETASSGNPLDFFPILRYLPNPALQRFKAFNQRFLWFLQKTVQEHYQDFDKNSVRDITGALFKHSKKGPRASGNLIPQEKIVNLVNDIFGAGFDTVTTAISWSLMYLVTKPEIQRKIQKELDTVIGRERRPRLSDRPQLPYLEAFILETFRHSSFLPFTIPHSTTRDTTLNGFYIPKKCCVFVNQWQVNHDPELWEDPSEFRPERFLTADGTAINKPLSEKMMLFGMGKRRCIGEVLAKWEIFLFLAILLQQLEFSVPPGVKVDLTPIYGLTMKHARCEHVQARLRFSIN

[5] = tested on: MYC in DIPG-IV and SF8628 cells; assay: Western blot of phospho MYC S62 and total MYC; type: cell-based, human; settings: TG02 100 nM
Experimental: FIGS. 6A-6H provide that ERK5 inhibition reduced MYC protein stability. (6A) Schematic of identifying differentially expressed phospho-proteins in DIPG-IV cells expressing ERK5 and ERK5 knockdown. (6B) Ratio of phospho:total protein changes in ERK5 knockdown versus ERK5 control DIPG-IV cells. […] (6D) Western blot of MYC in DIPG-IV cells treated with Dox and MG132 (10 uM). (6E) Immunoprecipitation of MYC and ERK5 followed by western blot of ERK5 and MYC. […] (6G) Western blot of DIPG cells re-transfected with constitutively active MYC S62D in presence of ERK5 loss. (6H) Cell doubling times of control and ERK5 knockdown DIPG cells and the effect of MYC S62D rescue. SF8628 cells (left) and DIPG-IV cells (right).
Cell pellets were lysed in PLC lysis buffer containing protease and phosphatase inhibitors (Roche Inc.). Protein lysates were quantified using the bicinchoninic acid (BCA) assay (Pierce Chemical Co., Rockford, Ill.). 30 μg of total protein lysate was loaded in 10% SDS-PAGE gels and electrophoresed. Proteins were transferred to PVDF membranes using a semi-dry transfer apparatus (Bio-Rad). […] Binding was detected using Chemiluminescence Reagent Plus (PerkinElmer Inc., MA, USA).

[6] = cited from earlier work; remark: listed apart in the source
PKCε = PKCε (Homo sapiens, UniProt Q02156); settings: cited from earlier work
PKCε, sequence (Q02156 whole entry): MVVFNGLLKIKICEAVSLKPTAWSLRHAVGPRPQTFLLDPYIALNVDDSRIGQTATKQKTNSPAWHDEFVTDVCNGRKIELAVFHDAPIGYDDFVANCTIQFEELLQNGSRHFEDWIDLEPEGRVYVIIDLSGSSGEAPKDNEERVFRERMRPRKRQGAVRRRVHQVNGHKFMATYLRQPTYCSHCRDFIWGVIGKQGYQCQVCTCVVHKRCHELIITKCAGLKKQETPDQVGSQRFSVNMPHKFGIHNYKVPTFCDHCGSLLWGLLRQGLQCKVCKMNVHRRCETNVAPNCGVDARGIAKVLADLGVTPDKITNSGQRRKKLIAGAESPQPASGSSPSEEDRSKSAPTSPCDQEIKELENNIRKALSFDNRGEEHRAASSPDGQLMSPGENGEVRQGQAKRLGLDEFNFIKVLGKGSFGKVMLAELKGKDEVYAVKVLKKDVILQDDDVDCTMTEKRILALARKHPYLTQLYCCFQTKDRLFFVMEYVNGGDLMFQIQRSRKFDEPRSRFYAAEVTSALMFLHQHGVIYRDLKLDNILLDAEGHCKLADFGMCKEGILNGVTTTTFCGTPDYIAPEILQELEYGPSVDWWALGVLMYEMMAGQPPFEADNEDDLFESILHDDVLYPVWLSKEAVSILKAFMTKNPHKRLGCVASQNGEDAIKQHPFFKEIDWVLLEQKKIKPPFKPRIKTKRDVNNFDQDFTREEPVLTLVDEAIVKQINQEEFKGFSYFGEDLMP

[7] = tissue and plasma distribution after a single PO dose; type: in vivo, female nude mice
Experimental: Three mice were sacrificed at a time 10 min, 30 min, 1, 2, 4, 8, and 24 hrs after dosing and pharmacokinetic levels were assessed.

CYP3A4 = CYP3A4 (Homo sapiens, UniProt P08684); settings: cited from earlier work
Chk1 = Chk1 (Homo sapiens, UniProt O14757); settings: cited from earlier work
Chk1, sequence (O14757 whole entry): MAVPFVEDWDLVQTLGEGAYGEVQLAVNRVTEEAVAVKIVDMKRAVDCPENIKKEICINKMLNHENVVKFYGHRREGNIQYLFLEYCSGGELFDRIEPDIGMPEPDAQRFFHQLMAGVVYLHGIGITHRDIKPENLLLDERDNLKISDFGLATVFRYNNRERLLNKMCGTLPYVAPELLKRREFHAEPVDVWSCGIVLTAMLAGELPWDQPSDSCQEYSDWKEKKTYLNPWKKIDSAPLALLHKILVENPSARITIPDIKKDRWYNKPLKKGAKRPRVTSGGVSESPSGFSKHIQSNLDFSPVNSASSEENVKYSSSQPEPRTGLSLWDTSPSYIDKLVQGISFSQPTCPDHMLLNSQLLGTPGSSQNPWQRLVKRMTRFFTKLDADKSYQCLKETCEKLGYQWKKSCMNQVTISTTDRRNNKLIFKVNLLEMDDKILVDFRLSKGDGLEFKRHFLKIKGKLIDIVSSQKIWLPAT

[8] = cited from earlier work; remark: listed apart in the source
[9] = tested on: DIPG-13p orthotopic xenografts; assay: DIPG-13p orthotopic xenograft model; type: in vivo, mice; settings: for survival vs vehicle: 20 mg/kg/day for 5 days, 2 days rest
Experimental: All animal procedures were carried out ethically according to animal user protocols approved by Institutional Animal Care Committee (IACUC). 4-6 week-old non-obese diabetic severe combined immune deficiency male or female mice (NOD-SCID-Prkdc^scid) were injected with 1×10^5 SU-DIPG-13p cells or 1×10^5 SF8628 DIPG cells. Cells were re-suspended in 2 μl of PBS and injected into the pons/midbrain using a stereotactic frame (Stoelting) and automated cell injector (Stoelting) with cells delivered over 4 minutes. Coordinates were as follows from the Lambda suture (x=0.8 mm, y=−0.8 mm, z=−5.0 mm). […] Mice were treated for two cycles (5 days on, with two days off per cycle). Mice were sacrificed at sign of neurological duress and brains were extracted and fixed in 4% PFA.
Also, the present disclosure used two established cell lines derived from transgenic mouse models of DIPG. Both lines are p53 null and express PDGFB, differing only in their H3.3 mutation status.
In a second DIPG mouse model, mice were injected with 1×10^5 DIPG13p cells in the midbrain of NOD-SCID gamma mice.
For each cycle, the compounds were administered 20 mg/kg/day for 5 days, followed with 2 days of rest period. Each mice received 2 cycles of treatment.

CaMKVI = CaMKVI (Homo sapiens, UniProt Q16566); settings: cited from earlier work

SMILES: CN1C/C=C/CCOc2cccc(c2)-c2ccnc(n2)Nc2cccc(c2)C1 [TG02, (16E)-14-methyl-20-oxa-5,7,14,27-tetraazatetracyclo[19.3.1.12,6.18,12]heptacosa-1(25),2(27),3,5,8(26),9,11,16,21,23-decaene]
- most clinically significant toxicities, TG02 combined with RT ([1]; human, in vivo): grade 2 nausea and vomiting and grade 3 neutropenia
- significant drug-related toxicities, single agent ([1]; twice a week in older adults): increased liver function tests and grade 3 neutropenia
- MTD as single-agent ([1]; twice a week in older adults, probably): ~150 mg per dose
- apoptosis (Annexin-PI) [2]: significantly higher rates of apoptosis; also recorded: increased populations in early apoptosis
- viable cells (Annexin negative, PI negative) [2]: decreased viable cells
- inhibition at 100 nm (JAK3): less than 50%
- inhibition at 100 nm (p38α): less than 50%
- IC50 [3]: 0.056 µM
- peak concentration in plasma ([4]; adults, single dose of 200 mg, equivalent): 11,000 nM
- Cmax in adults over in vitro IC50 in patient-derived DIPG cell lines ([4]; in vivo): ~2 logs
- inhibition at 100 nm (KDR): less than 50%
- inhibition at 100 nm (IKK-β): less than 50%
- inhibition at 100 nm (Abl): less than 50%
- inhibition at 100 nm (PDGFRβ): less than 50%
- inhibition at 100 nm (Src): less than 50%
- substrate of CYP1A2 (CYP1A2): substrate
- phospho MYC (S62) and total MYC [5]: reduced phospho and total MYC
- inhibition at 100 nm [6]: less than 50%
- inhibition at 100 nm (PKCε): less than 50%
- blood-brain barrier penetration ([7]; mouse, in vivo): blood-brain barrier penetrant
- Cmax in the brain compared to plasma ([7]; single PO dose of 75 mg/kg): at least twice as high
- exposure (AUC0-last) in the brain compared to plasma ([7]; single PO dose of 75 mg/kg): at least twice as high
- substrate of CYP3A4 (CYP3A4): substrate
- inhibition at 100 nm (Chk1): less than 50%
- dose-limiting toxicities (DLTs), DD regimen ([8]; human, in vivo): grade 3 diarrhea (n=1) at 200 mg of TG02, and grade 4 neutropenia and grade 3 increase in ALT (n=1) at 250 mg of TG02
- dose-limiting toxicities (DLTs), MN regimen ([8]; human, in vivo): grade 4 lymphopenia (n=2) and increase in ALT (n=1) at 250 mg of TG02
- MTD, metronomic (MN) temozolomide regimen ([8]; temozolomide 50 mg/m^2): 200 mg
- MTD, dose-dense (DD) temozolomide regimen ([8]; temozolomide 125 m/m^2 per day 7 days on/7 days off): 250 mg
- K167 expression (proliferation marker) ([9]; 20 mg/kg, 2 cycles, vs vehicle): significantly reduced K167 expression
- survival vs vehicle ([9]; 2 cycles): statistically significant increased median survival
- survival vs vehicle ([9]; 2 cycles, listed as TG02 obtained from Adastra Pharmaceuticals): extended survival
- median survival ([9]; TG02 20 mg/kg, 2 cycles of 5 days on 2 days off, vehicle 22.5 days): 40 days
- inhibition at 100 nm (CaMKVI): less than 50%
